# Structures can show the parent of a compound that is named as a salt. Where two headings read alike, the source gives them in different places.
# Assays:
# [1] = tested on: nuclear β-catenin in C2C12 cells; test: cells; format: cell-based
# [2] = target: T1, hGSK3b (Homo sapiens, UniProt P49841); test: Cerep LANCE kinase assay hGSK3b (S1 assay 34); format: biochemical; conditions: read-out: GSK3b
# T1 construct: purchased Cerep (LANCE kinase assay platform, contract assay)
# [3] = tested on: HCT116; test: cells; format: cell-based
# [4] = target: T2, hFLT3 (Homo sapiens, UniProt P36888); test: Cerep LANCE kinase assay hFLT3 (S1 assay 35); format: biochemical; conditions: read-out: FLT3
# T2 construct: purchased Cerep (LANCE kinase assay platform, contract assay)
# [5] = tested on: NCI-H716 cells; test: cells; format: cell-based, Human
# [6] = target: T3, hKDR (Homo sapiens, UniProt P35968); test: Cerep LANCE kinase assay hKDR (S1 assay 32); format: biochemical; conditions: read-out: KDR
# T3 construct: purchased Cerep (LANCE kinase assay platform, contract assay)
# [7] = tested on: SW480; test: cells; format: cell-based
# [8] = tested on: INS-1E cells; test: cells; format: cell-based, rat
# [9] = tested on: HCT116 cells treated with a GSK3β inhibitor; test: cells; format: cell-based
# [10] = target: T4, hJAK2 (Homo sapiens, UniProt O60674); test: Cerep LANCE kinase assay hJAK2 (S1 assay 33); format: biochemical; conditions: read-out: JAK2
# T4 construct: purchased Cerep (LANCE kinase assay platform, contract assay)
# [11] = tested on: endothelial tube formation in co-cultures of ECFCs and ADSCs treated with VEGF; test: cells; format: cell-based, human
# [12] = target: T5, hp70S6K1 (RPS6KB1) (Homo sapiens, UniProt P23443); test: Cerep LANCE kinase assay hp70S6K1 (S1 assay 31); format: biochemical; conditions: read-out: p70S6K1
# T5 construct: purchased Cerep (LANCE kinase assay platform, contract assay)
# [13] = tested on: DLD-1; test: cells; format: cell-based
# [14] = tested on: HeLa cells; test: cells; format: cell-based; conditions: for EC50: read-out: CellCycle G2/M
# T2 sequence (P36888 27-993): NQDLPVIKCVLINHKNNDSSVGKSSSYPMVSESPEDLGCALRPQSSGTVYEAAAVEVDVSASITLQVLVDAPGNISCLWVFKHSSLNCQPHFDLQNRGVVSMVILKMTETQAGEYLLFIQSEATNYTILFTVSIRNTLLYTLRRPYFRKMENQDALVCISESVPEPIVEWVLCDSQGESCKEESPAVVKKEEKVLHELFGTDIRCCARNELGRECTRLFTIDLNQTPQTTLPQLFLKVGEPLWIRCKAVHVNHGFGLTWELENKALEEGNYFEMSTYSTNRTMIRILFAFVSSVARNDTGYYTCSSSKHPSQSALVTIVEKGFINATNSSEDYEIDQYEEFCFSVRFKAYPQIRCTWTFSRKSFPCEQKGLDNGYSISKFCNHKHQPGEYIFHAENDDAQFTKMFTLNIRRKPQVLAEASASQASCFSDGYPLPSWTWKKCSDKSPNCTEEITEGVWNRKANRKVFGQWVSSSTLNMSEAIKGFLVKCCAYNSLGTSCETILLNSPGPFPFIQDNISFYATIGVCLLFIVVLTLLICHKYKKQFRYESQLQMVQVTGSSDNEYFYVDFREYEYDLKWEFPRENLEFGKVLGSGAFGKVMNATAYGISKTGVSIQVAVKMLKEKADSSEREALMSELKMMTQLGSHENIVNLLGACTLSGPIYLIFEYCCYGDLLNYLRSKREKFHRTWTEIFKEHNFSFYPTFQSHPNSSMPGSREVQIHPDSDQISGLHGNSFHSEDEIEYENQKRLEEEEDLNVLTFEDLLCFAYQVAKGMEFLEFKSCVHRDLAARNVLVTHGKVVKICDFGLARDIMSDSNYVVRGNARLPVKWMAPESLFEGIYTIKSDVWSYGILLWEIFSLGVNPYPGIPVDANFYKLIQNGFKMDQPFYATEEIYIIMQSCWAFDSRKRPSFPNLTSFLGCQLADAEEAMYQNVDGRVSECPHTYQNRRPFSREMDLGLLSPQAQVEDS
# T1 sequence (P49841 whole entry): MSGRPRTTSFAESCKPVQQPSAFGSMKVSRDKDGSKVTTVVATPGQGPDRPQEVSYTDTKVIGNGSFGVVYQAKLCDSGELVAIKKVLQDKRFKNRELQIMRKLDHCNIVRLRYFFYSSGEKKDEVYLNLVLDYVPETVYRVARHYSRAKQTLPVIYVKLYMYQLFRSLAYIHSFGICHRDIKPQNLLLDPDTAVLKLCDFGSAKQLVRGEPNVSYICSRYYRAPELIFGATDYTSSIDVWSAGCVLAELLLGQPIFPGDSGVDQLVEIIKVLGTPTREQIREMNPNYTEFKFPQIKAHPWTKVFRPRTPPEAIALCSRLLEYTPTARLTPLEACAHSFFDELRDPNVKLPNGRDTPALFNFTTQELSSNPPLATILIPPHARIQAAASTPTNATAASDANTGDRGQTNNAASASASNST
# T4 sequence (O60674 whole entry): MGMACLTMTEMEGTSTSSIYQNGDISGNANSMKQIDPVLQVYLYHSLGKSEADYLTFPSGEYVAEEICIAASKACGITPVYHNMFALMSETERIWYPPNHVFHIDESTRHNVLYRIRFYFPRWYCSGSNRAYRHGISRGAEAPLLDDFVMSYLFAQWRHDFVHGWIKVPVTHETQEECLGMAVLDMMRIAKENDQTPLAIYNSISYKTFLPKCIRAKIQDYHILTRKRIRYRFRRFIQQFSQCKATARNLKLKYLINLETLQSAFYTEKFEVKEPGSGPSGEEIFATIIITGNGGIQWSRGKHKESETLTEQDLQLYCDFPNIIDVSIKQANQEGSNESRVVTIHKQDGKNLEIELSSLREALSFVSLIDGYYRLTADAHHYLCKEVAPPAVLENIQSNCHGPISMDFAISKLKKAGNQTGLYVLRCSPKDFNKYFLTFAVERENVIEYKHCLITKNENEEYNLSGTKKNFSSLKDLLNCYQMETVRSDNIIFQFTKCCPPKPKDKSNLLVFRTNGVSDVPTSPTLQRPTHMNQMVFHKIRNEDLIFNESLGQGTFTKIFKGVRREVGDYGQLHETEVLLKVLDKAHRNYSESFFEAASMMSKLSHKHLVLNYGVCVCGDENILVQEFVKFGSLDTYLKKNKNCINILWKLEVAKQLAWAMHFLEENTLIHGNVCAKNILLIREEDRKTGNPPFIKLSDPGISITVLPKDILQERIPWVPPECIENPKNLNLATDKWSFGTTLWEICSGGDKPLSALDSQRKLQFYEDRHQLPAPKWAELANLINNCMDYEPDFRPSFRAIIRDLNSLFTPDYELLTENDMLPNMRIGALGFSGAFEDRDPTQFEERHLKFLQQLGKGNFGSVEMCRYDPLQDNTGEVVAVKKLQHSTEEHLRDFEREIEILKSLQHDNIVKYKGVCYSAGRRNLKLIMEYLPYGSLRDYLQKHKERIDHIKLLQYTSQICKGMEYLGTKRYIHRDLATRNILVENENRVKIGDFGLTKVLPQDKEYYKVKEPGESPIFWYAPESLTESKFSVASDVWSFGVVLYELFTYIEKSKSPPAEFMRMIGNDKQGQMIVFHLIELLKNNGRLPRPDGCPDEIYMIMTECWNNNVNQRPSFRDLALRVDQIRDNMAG
# T5 sequence (P23443 whole entry): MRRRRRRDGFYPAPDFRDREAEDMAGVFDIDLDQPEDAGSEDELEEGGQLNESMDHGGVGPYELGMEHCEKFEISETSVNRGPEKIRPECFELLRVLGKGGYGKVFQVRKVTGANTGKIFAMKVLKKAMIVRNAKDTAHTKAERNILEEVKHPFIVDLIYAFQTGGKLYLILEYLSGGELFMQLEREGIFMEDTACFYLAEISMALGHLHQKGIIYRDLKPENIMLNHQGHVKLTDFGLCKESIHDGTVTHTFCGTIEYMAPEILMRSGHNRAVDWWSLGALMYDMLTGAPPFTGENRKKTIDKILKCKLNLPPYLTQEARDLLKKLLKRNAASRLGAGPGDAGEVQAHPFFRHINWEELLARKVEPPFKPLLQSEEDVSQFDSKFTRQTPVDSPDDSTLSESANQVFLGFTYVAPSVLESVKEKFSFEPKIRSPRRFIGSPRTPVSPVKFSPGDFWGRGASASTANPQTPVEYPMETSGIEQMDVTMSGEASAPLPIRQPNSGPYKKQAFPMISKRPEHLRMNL
# T3 sequence (P35968 20-1356): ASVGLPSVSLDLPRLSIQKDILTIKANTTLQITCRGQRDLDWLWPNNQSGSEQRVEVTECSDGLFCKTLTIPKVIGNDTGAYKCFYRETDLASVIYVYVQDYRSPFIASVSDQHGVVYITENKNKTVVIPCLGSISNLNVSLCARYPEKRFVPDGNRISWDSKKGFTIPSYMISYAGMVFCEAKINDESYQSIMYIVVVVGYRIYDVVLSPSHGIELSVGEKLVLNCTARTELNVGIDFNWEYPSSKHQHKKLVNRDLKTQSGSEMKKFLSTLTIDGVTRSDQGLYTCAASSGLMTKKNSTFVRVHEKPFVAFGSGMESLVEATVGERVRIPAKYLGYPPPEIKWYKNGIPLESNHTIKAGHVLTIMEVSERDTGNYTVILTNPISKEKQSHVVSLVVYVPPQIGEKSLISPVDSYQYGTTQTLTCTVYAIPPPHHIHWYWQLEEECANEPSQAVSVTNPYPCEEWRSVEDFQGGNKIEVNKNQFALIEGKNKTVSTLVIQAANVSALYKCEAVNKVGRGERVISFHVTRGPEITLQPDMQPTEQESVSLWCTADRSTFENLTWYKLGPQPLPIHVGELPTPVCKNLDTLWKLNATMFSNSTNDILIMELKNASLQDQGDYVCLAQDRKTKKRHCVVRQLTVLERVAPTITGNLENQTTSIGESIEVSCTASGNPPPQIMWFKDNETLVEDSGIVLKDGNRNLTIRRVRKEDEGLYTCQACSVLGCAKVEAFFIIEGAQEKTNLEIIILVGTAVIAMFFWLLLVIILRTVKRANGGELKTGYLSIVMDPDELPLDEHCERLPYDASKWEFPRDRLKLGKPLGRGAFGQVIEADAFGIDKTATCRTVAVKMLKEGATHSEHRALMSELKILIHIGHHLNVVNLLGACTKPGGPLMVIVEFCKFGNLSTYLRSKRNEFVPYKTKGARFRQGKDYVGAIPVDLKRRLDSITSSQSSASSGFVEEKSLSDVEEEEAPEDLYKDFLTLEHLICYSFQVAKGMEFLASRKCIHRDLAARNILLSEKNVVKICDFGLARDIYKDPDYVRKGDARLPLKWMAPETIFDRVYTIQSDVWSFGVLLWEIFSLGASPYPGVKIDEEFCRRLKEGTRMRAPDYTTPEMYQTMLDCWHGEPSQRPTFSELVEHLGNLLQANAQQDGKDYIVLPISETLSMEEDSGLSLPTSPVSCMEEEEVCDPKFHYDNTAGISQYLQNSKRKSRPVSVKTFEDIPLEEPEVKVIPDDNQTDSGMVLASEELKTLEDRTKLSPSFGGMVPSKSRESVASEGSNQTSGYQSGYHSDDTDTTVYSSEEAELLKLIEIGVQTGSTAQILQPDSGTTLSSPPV
structure (smiles),measurement,setting,value
CCN(CC)CCNc1ccc(CO)c2sc3ccccc3c(=O)c12 [Hycanthonum],EC50,[1]; read-out: Wnt Pathway,2.67 µM
same,IC50,[2]; kinase assay,> 20 µM
same,IC50,"[3]; basal, HCT116, read-out: Basal_Viability ATP HCT116",8.59 µM
same,IC50,[4]; kinase assay,> 20 µM
same,EC50,"[5]; S2 Table, module primary assay, 20 / 20.1 codes per legend, read-out: GLP 1 Secretion",> 10 µM
same,IC50,[6]; kinase assay,> 20 µM
same,IC50,"[7]; basal, SW480, read-out: Basal_Viability ATP SW480",6.84 µM
same,EC50,"[8]; S2 Table, module primary assay, 20 / 20.1 codes per legend, read-out: Insulin Secretion",> 10 µM
same,IC50,"[9]; HCT116 pretreated with GSK3b inhibitor, read-out: GSK3b inh pretreated_Viability ATP HCT116",> 20 µM
same,IC50,[10]; kinase assay,> 20 µM
same,IC50,[11]; read-out: Anti-Angiogenesis,8.35 µM
same,IC50,[12]; kinase assay,17.1 µM
same,IC50,"[13]; basal, DLD-1, read-out: Basal_Viability ATP DLD-1",> 20 µM
same,EC50,"[14]; S2 Table, HeLa, 20 = no response at highest concentration",> 10 µM
C[C@@]12C(=O)OC(=O)[C@]1(C)[C@H]1CC[C@@H]2O1 [Cantharidine],EC50,"[1]; Mus musculus, C2C12, read-out: Wnt Pathway",1.49 µM
same,IC50,[2]; kinase assay,> 20 µM
same,IC50,"[3]; Homo sapiens, HCT-116, basal, HCT116, read-out: Basal_Viability ATP HCT116",7.71 µM
same,IC50,[4]; kinase assay,> 20 µM
same,EC50,"[5]; Homo sapiens, NCI-H716, read-out: GLP 1 Secretion",6.68 µM
same,IC50,[6]; kinase assay,> 20 µM
same,IC50,"[7]; Homo sapiens, basal, SW480, read-out: Basal_Viability ATP SW480",1.86 µM
same,EC50,"[8]; Rattus norvegicus, INS-1E, read-out: Insulin Secretion",> 10 µM
same,IC50,"[9]; Homo sapiens, HCT-116, HCT116 pretreated with GSK3b inhibitor, read-out: GSK3b inh pretreated_Viability ATP HCT116",3.03 µM
same,IC50,[10]; kinase assay,> 20 µM
same,IC50,"[11]; Homo sapiens, read-out: Anti-Angiogenesis",1.23 µM
same,IC50,[12]; kinase assay,> 20 µM
same,IC50,"[13]; Homo sapiens, basal, DLD-1, read-out: Basal_Viability ATP DLD-1",1.12 µM
same,EC50,"[14]; Homo sapiens, S2 Table, HeLa, 20 = no response at highest concentration",> 10 µM
[O-][n+]1ccccc1SSc1cccc[n+]1[O-] [Dipyrithione magnesium sulfate],EC50,[1]; read-out: Wnt Pathway,0.131 µM
same,IC50,[2],> 20 µM
same,IC50,[3]; read-out: Basal_Viability ATP HCT116,20 µM
same,IC50,[4],> 20 µM
same,EC50,[5]; read-out: GLP 1 Secretion,> 10 µM
same,IC50,[6],> 20 µM
same,IC50,[7]; read-out: Basal_Viability ATP SW480,> 20 µM
same,EC50,[8]; read-out: Insulin Secretion,> 10 µM
same,IC50,[9]; read-out: GSK3b inh pretreated_Viability ATP HCT116,> 20 µM
same,IC50,[10],> 20 µM
same,IC50,[11]; read-out: Anti-Angiogenesis,0.719 µM
same,IC50,[12],> 20 µM
same,IC50,[13]; read-out: Basal_Viability ATP DLD-1,> 20 µM
same,EC50,[14],> 10 µM
C[C@@H]1C[C@@H]([C@H](O)CC2CC(=O)NC(=O)C2)C(=O)[C@@H](C)C1,EC50,"[1]; IC50 / EC50, C2C12 beta-catenin translocation, read-out: Wnt Pathway",> 10 µM
same,IC50,[2],> 20 µM
same,IC50,"[3]; basal, read-out: Basal_Viability ATP HCT116",2.02 µM
same,IC50,[4],> 20 µM
same,EC50,"[5]; IC50 / EC50, NCI-H716, read-out: GLP 1 Secretion",> 10 µM
same,IC50,[6],> 20 µM
same,IC50,"[7]; basal, read-out: Basal_Viability ATP SW480",3.04 µM
same,EC50,"[8]; IC50 / EC50, INS-1E, read-out: Insulin Secretion",> 10 µM
same,IC50,"[9]; GSK3b inhibitor pretreated, read-out: GSK3b inh pretreated_Viability ATP HCT116",1.02 µM
same,IC50,[10],> 20 µM
same,IC50,"[11]; IC50 / EC50, endothelial tube area, ADSC/ECFC co-culture, read-out: Anti-Angiogenesis",1.15 µM
same,IC50,[12],> 20 µM
same,IC50,"[13]; basal, read-out: Basal_Viability ATP DLD-1",3.57 µM
same,EC50,"[14]; IC50 / EC50, HeLa",> 10 µM
"C=C(C)[C@H]1Cc2c(ccc3c2O[C@@H]2COc4cc(OC)c(OC)cc4[C@@H]2C3=O)O1 [rotenone, reference compound]",EC50,"[1]; Mus musculus, C2C12, read-out: Wnt pot. EC50",0.25 µM
same,EC50,"[1]; Mus musculus, IC50 / EC50, C2C12 beta-catenin translocation, read-out: Wnt Pathway",0.254 µM
same,IC50,[2],> 20 µM
same,IC50,"[3]; Homo sapiens, HCT-116, read-out: HCT-116 viab. IC50, Table 2, basal, 72 h, Cell TiterGlo, non-adherent, 20 coded",1.2 µM
same,IC50,"[3]; Homo sapiens, HCT-116, read-out: Basal_Viability ATP HCT116",1.18 µM
same,IC50,[4],> 20 µM
same,EC50,"[5]; Homo sapiens, NCI-H716, read-out: GLP1 sec. EC50",> 10 µM
same,IC50,[6],> 20 µM
same,IC50,"[7]; Homo sapiens, SW480, Table 2, 72 h, Cell TiterGlo, non-adherent, 20 coded, read-out: SW480 viab. IC50",0.16 µM
same,IC50,"[7]; Homo sapiens, SW480, read-out: Basal_Viability ATP SW480",0.162 µM
same,EC50,"[8]; Rattus norvegicus, INS-1E, read-out: Ins. sec. EC50",> 10 µM
same,IC50,"[9]; Homo sapiens, HCT-116, read-out: HCT-116 (GSK3β) viab. IC50, Table 2, GSK3β inhibitor LY2090314 20 nM, 72 h, Cell TiterGlo, 20 coded",0.067 µM
same,IC50,"[9]; Homo sapiens, HCT-116, GSK3b inhibitor pretreated, read-out: GSK3b inh pretreated_Viability ATP HCT116",0.0667 µM
same,IC50,[10],> 20 µM
same,IC50,"[11]; Homo sapiens, IC50 / EC50, endothelial tube area, ADSC/ECFC co-culture, read-out: Anti-Angiogenesis",0.0257 µM
same,IC50,"[11]; Homo sapiens, read-out: Anti-Angio IC50",0.026 µM
same,IC50,[12],> 20 µM
same,IC50,"[13]; Homo sapiens, DLD-1, Table 2, 72 h, Cell TiterGlo, non-adherent, 20 coded, read-out: DLD-1 viab. IC50",0.35 µM
same,IC50,"[13]; Homo sapiens, DLD-1, read-out: Basal_Viability ATP DLD-1",0.35 µM
same,G2/M IC50 / EC50,[14],0.31 µM
same,EC50,"[14]; Homo sapiens, IC50 / EC50, HeLa",0.311 µM

# — paper PMC4503722, “Novel Phenotypic Outcomes Identified for a Public Collection of Approved Drugs from a Publicly Accessible Panel of Assays” (PLoS ONE, 2015)
